This experiment has as its system B16 melanoma cells. The experiment is described as follows: Caspase-3 activity assay (EnzChek Caspase-3 Assay Kit), caspase-3 induction in tumor cells. As to all read-outs here: test concentration or dose not given here. Format: cell-based, mouse. Particulars: for Caspase-3 induction, Normalized to Formula (III) (%): relative to compound of Formula (III). The text has this:
The EnzChek® Caspase-3 Assay Kit was used to detect apoptosis by assaying for increases in caspase-3 activities. The basis for the assay was rhodamine 110 bis-(N-CBZ-L-aspartyl-L-glutamyl-L-valyl-L-aspartic acid amide) (Z-DEVD-R110). This substrate is a bisamide derivative of rhodamine 110 (R110) containing DEVD peptides covalently linked to each of R110's amino groups, thereby suppressing the dye's visible absorption and its fluorescence. Upon enzymatic cleavage, the nonfluorescent bisamide substrate is converted in a two-step process first to a fluorescent monoamide and then to an even more fluorescent R110.
At least 1×10^6 cells of the lysate were used for each reaction. B16 cells were treated with compounds to induce apoptosis. A negative control was prepared by incubating cells in the absence of compounds. The cells were incubated with compounds for 24 hrs and washed in PBS. Each cell sample or control was resuspended in 50 μL of the 1×cell lysis buffer. Cells were lysed by incubating on ice for 30 minutes, and the lysed cells were centrifuged to pellet the cellular debris. 50 μL of the supernatant was transferred from each sample to individual microplate wells. 50 μL of the 1× cell lysis buffer was used as a no-enzyme control to determine the background fluorescence of the substrate. 50 μL of the 2×substrate working solution was added to each sample and control. The microplate was covered, and the samples were incubated at room temperature for approximately 30 minutes. The fluorescence was measured by a fluorescence microplate reader (excitation/emission ˜496/520 nm) using excitation and emission filters.
The ability of this small molecule inhibitor to inhibit intracellular Sb9 was then evaluated. As a marker for cell penetration, the induction of caspase-3 activity in B16 melanoma cells as a surrogate marker for increased GrB activity was measured.
The induction of caspase-3 activity in B16 melanoma cells as a surrogate marker for increased GrB activity was also measured for other small molecules (compounds of Formulas (V) and (VI) as described herein).

Data on 39 molecules can be found in US20230255906A1, “Targeting Serpin B9 in Cancer” (The Brigham and Women`s Hospital, Inc., priority 2020, published 2023).

Turning to `O=C1CN(C(=O)c2ccc3oc(-c4ccc(C(F)(F)F)cc4)nc3c2)CCN1` [4-({2-[4-(trifluoromethyl)phenyl]-1,3-benzoxazol-5-yl}carbonyl)-2-piperazinone], the “Ratio of caspase-3 activity to Formula (III)” value (“Ratio of caspase-3 activity” for short) is given as 1.698.
In the case of `CCOc1ccc(C(=O)NCC(C)C)cc1O` [4-ethoxy-3-hydroxy-N-(2-methylpropyl)benzamide], the “Caspase-3 induction, Normalized to Formula (III) (%)” value was −3.559%.
Still for that read-out and setting: with `CCOc1ccc(C(=O)NCCCOC)cc1O` [4-ethoxy-3-hydroxy-N-(3-methoxypropyl)benzamide] the figure was −35.6816%; with `CCOc1ccc(C(=O)NCC2CCOCC2)cc1O` [4-ethoxy-3-hydroxy-N-[(oxan-4-yl)methyl]benzamide], −30.8469%; with `CCOc1ccc(C(=O)NCC2CCOC2)cc1O` (stereo not drawn) [4-ethoxy-3-hydroxy-N-[(oxolan-3-yl)methyl]benzamide], −24.9053%.
On the same count and under the same terms, then `CCOc1ccc(C(=O)N(C)CC)cc1O` [4-ethoxy-N-ethyl-3-hydroxy-N-methylbenzamide], with −69.889%; and `COc1cc(C(=O)NCC(C)C)cc(OC)c1O` [4-hydroxy-3,5-dimethoxy-N-(2-methylpropyl)benzamide], with −25.2896%.
In the case of `COCCCNC(=O)c1cc(OC)c(O)c(OC)c1` [4-hydroxy-3,5-dimethoxy-N-(3-methoxypropyl)benzamide], the “Caspase-3 induction, Normalized to Formula (III) (%)” value is on record as −23.5938%.
The same measure, in the same setting: with `COc1cc(C(=O)NCC2(C)CC2)cc(OC)c1O` [4-hydroxy-3,5-dimethoxy-N-[(1-methylcyclopropyl)methyl]benzamide] the figure was −0.598%; with `COc1cc(C(=O)NCC2CCOCC2)cc(OC)c1O` [4-hydroxy-3,5-dimethoxy-N-[(oxan-4-yl)methyl]benzamide], −78.7609%.
For the molecule `COc1cc(C(=O)NCC2CCOCC2)ccc1O` [4-hydroxy-3-methoxy-N-[(oxan-4-yl)methyl]benzamide], the “Caspase-3 induction, Normalized to Formula (III) (%)” value is recorded as −76.3077%.
For the molecule `Cc1cc(O)c(O)cc1C(=O)N1CCCC1` [4-methyl-5-(pyrrolidine-1-carbonyl)benzene-1,2-diol], the “Caspase-3 induction, Normalized to Formula (III) (%)” value is reported as −40.485%.
As for `O=C(c1ccc2oc(-c3cccc(F)c3)nc2c1)N1CCOc2ccccc2C1` [4-{[2-(3-fluorophenyl)-1,3-benzoxazol-5-yl]carbonyl}-2,3,4,5-tetrahydro-1,4-benzoxazepine], the “Ratio of caspase-3 activity” value was 0.1627.
Same read-out and setting: then `COc1cccc(-c2nc3ccc(C(=O)N4CCOC(C(N)=O)C4)cc3o2)c1` (stereo not drawn) [4-{[2-(3-methoxyphenyl)-1,3-benzoxazol-6-yl]carbonyl}morpholine-2-carboxamide], with 0.1611.
For `O=C(c1ccc2oc(-c3ccc(C(F)(F)F)cc3)nc2c1)N1CCOCC1` [5-(4-morpholinylcarbonyl)-2-[4-(trifluoromethyl)phenyl]-1,3-benzoxazole], the “Ratio of caspase-3 activity” value came to 0.1317.
Turning to `CCN1CCN(C(=O)c2ccc3oc(-c4cccc(F)c4)nc3c2)CC1` [5-[(4-ethyl-1-piperazinyl)carbonyl]-2-(3-fluorophenyl)-1,3-benzoxazole], the “Ratio of caspase-3 activity” value stood at 0.6541.
`COCC1CCN(C(=O)c2ccc3oc(-c4ccc(C(F)(F)F)cc4)nc3c2)C1` (stereo not drawn) [5-{[3-(methoxymethyl)-1-pyrrolidinyl]carbonyl}-2-[4-(trifluoromethyl)phenyl]-1,3-benzoxazole]: the “Ratio of caspase-3 activity” value is reported as 0.1424.
Turning to `O=C(c1ccc2nc(S)oc2c1)N1CCCC1` [6-(pyrrolidine-1-carbonyl)-1,3-benzoxazole-2-thiol], the “Caspase-3 induction, Normalized to Formula (III) (%)” value was −30.7254%.
Still for that read-out and setting: with `O=C(c1ccc2nc(C(F)(F)F)oc2c1)N1CCCC1` [6-(pyrrolidine-1-carbonyl)-2-(trifluoromethyl)-1,3-benzoxazole] the figure was −71.4007%; with `O=C(c1cc2c(cc1O)OCO2)N1CCCC1` [6-(pyrrolidine-1-carbonyl)-2H-1,3-benzodioxol-5-ol], −35.7785%.
As for `COc1cccc(-c2nc3ccc(C(=O)N4CCS(=O)(=O)CC4)cc3o2)c1` [6-[(1,1-dioxidothiomorpholin-4-yl)carbonyl]-2-(3-methoxyphenyl)-1,3-benzoxazole], the “Ratio of caspase-3 activity” value was 0.7081.
The same measure, in the same setting: with `COc1cccc(-c2nc3ccc(C(=O)N4CCN(C5CCCC5)CC4)cc3o2)c1` [6-[(4-cyclopentyl-1-piperazinyl)carbonyl]-2-(3-methoxyphenyl)-1,3-benzoxazole] the figure was 0.1582.
As for `CC(C)CNC(=O)c1cc2c(cc1O)OCO2` [6-hydroxy-N-(2-methylpropyl)-2H-1,3-benzodioxole-5-carboxamide], the “Caspase-3 induction, Normalized to Formula (III) (%)” value was −31.2294%.
The same measure, in the same setting: then `COCCCNC(=O)c1cc2c(cc1O)OCO2` [6-hydroxy-N-(3-methoxypropyl)-2H-1,3-benzodioxole-5-carboxamide], with −41.8942%.
Regarding `O=C(c1ccc2nc(-c3ccccc3)oc2c1)N1CCC12CCOC2` (stereo not drawn) [6-{6-oxa-1-azaspiro[3.4]octane-1-carbonyl}-2-phenyl-1,3-benzoxazole], the “Ratio of caspase-3 activity” value was determined as 1.434.
With `O=C(c1ccc2oc(-c3cccc(F)c3)nc2c1)N1CCCCC1CO` (stereo not drawn) [(1-{[2-(3-fluorophenyl)-1,3-benzoxazol-5-yl]carbonyl}-2-piperidinyl)methanol], the “Ratio of caspase-3 activity” value is 1.133.
On the same count and under the same terms, with `O=C(c1ccc2oc(-c3ccc(C(F)(F)F)cc3)nc2c1)N1CC[C@H](O)C1` [(3S)-1-({2-[4-(trifluoromethyl)phenyl]-1,3-benzoxazol-5-yl}carbonyl)-3-pyrrolidinol] the figure was 0.1382; with `CCN1CCN(C(=O)c2ccc3nc(-c4cccc(OC)c4)oc3c2)[C@@H](C)C1=O` [(3S)-1-ethyl-4-{[2-(3-methoxyphenyl)-1,3-benzoxazol-6-yl]carbonyl}-3-methyl-2-piperazinone], 0.1434.
Take `CCN(CC)C(=O)C1CCCN(C(=O)c2ccc3nc(-c4cccc(OC)c4)oc3c2)C1` (stereo not drawn) [N,N-diethyl-1-{[2-(3-methoxyphenyl)-1,3-benzoxazol-6-yl]carbonyl}-3-piperidinecarboxamide]: the “Ratio of caspase-3 activity” value turned out to be 0.1463.
With `CN(C)c1nc2c(C(=O)N3CCCC3)cccc2o1` [N,N-dimethyl-4-(pyrrolidine-1-carbonyl)-1,3-benzoxazol-2-amine], the “Caspase-3 induction, Normalized to Formula (III) (%)” value was −22.9856%.
For the molecule `CN(C)c1nc2cccc(C(=O)N3CCCC3)c2o1` [N,N-dimethyl-7-(pyrrolidine-1-carbonyl)-1,3-benzoxazol-2-amine], the “Caspase-3 induction, Normalized to Formula (III) (%)” value was −21.0312%.
In the case of `O=C(NC1C=CS(=O)(=O)C1)c1ccc2oc(-c3cccc(F)c3)nc2c1` (stereo not drawn) [N-(1,1-dioxido-2,3-dihydro-3-thienyl)-2-(3-fluorophenyl)-1,3-benzoxazole-5-carboxamide], the “Ratio of caspase-3 activity” value is listed as 0.09701.
`CN(CC(O)CO)C(=O)c1ccc2oc(-c3ccc(C(F)(F)F)cc3)nc2c1` (stereo not drawn) [N-(2,3-dihydroxypropyl)-N-methyl-2-[4-(trifluoromethyl)phenyl]-1,3-benzoxazole-5-carboxamide]: the “Ratio of caspase-3 activity” value is on record as 0.135.
Same read-out and setting: then `O=C1CCC(NC(=O)c2ccc3nc(-c4ccccc4)oc3c2)C(=O)N1` (stereo not drawn) [N-(2,6-dioxopiperidin-3-yl)-2-phenyl-1,3-benzoxazole-6-carboxamide], with 0.6989; and `COc1cccc(-c2nc3ccc(C(=O)N(C)CC(O)c4ccccc4)cc3o2)c1` (stereo not drawn) [N-(2-hydroxy-2-phenylethyl)-2-(3-methoxyphenyl)-N-methyl-1,3-benzoxazole-6-carboxamide], with 0.1589.
On to `O=C(NCCO)c1ccc2oc(-c3ccc(C(F)(F)F)cc3)nc2c1` [N-(2-hydroxyethyl)-2-[4-(trifluoromethyl)phenyl]-1,3-benzoxazole-5-carboxamide], for which the “Ratio of caspase-3 activity” value was found to be 0.3843.
`CC(C)N(CCO)C(=O)c1ccc2oc(-c3ccc(C(F)(F)F)cc3)nc2c1` [N-(2-hydroxyethyl)-N-isopropyl-2-[4-(trifluoromethyl)phenyl]-1,3-benzoxazole-5-carboxamide]: the “Ratio of caspase-3 activity” value was 0.1324.
For `CC(O)CNC(=O)c1ccc2oc(-c3ccc(C(F)(F)F)cc3)nc2c1` (stereo not drawn) [N-(2-hydroxypropyl)-2-[4-(trifluoromethyl)phenyl]-1,3-benzoxazole-5-carboxamide], the “Ratio of caspase-3 activity” value is recorded as 0.0922.
On the same count and under the same terms, then `COc1cccc(-c2nc3ccc(C(=O)NCC(C)(C)CO)cc3o2)c1` [N-(3-hydroxy-2,2-dimethylpropyl)-2-(3-methoxyphenyl)-1,3-benzoxazole-6-carboxamide], with 0.6716.
